Measurements taken from ChEMBL document CHEMBL4393706, “Ursolic acid derivative induces apoptosis in glioma cells through down-regulation of cAMP” (2019).
Activity calls are given as the source filed them. No cut-off for these calls is given here.

Assays:
U-251 [1] = assay: Induction of apoptosis in human U251 cells assessed as apoptotic cells at 10 uM measured after 48 hrs by annexin V/FITC-propidium iodide staining-based flow cytometric method relative to control; assay type: functional
U-251 [2] = assay: Cell cycle arrest in human U251 cells assessed as accumulation at G0/G1 phase at 6 uM measured after 48 hrs by propidium iodide staining based FACScan flow cytometry (reference value: 29.21 %); assay type: functional
U-251 [3] = assay: Antiproliferative activity against human U251 cells assessed as cell proliferation at 8 uM measured after 48 hrs relative to control; assay type: functional; details: U-251, 48 h, read-out: Activity
U-251 [4] = assay: Antiproliferative activity against human U251 cells assessed as reduction in cAMP level at 6 uM measured after 48 hrs by radio-immunoassay relative to control; assay type: functional; design: scale not given: the % may be the effect or the level left
U-251 [5] = assay: Induction of autophagy in human U251 cells assessed as morphological changes at 10 uM measured after 48 hrs by transmission electron microscopy; assay type: functional, cell-based
U-251 [6] = assay: Cytotoxicity against human U251 cells at 5 uM measured after 48 hrs by MTT assay; assay type: functional, cell-based
U-251 [7] = assay: Induction of apoptosis in human U251 cells assessed as apoptotic cells at 6 uM measured after 48 hrs by annexin V/FITC-propidium iodide staining-based flow cytometric method relative to control; assay type: functional
U-251 [8] = assay: Antiproliferative activity against human U251 cells assessed as cell proliferation at 2 uM measured after 48 hrs relative to control; assay type: functional; details: U-251, 48 h, read-out: Activity
C6 [9] = assay: Antiproliferative activity against rat C6 cells assessed as cell proliferation at 8 uM measured after 48 hrs relative to control; assay type: functional; details: C6, 48 h, read-out: Activity
C6 [10] = assay: Antiproliferative activity against rat C6 cells assessed as cell proliferation at 10 uM measured after 48 hrs relative to control; assay type: functional; details: C6, 48 h, read-out: Activity
U-251 [11] = assay: Cell cycle arrest in human U251 cells assessed as accumulation at G2/M phase at 6 uM measured after 48 hrs by propidium iodide staining based FACScan flow cytometry (reference value: 52.67 %); assay type: functional
U-251 [12] = assay: Antiproliferative activity against human U251 cells assessed as cell proliferation at 10 uM measured after 48 hrs relative to control; assay type: functional; details: U-251, 48 h, read-out: Activity
U-251 [13] = assay: Induction of morphological changes in human U251 cells assessed as membrane blebbing at 6 to 10 uM measured after 48 hrs by transmission electron microscopy; assay type: functional, cell-based
U-251 [14] = assay: Induction of apoptosis in human U251 cells assessed as apoptotic cells at 4 uM measured after 48 hrs by annexin V/FITC-propidium iodide staining-based flow cytometric method ( Rvb = 2.34%); assay type: functional
C6 [15] = assay: Antiproliferative activity against rat C6 cells measured after 48 hrs by MTT assay; assay type: functional, cell-based
U-251 [16] = assay: Induction of morphological changes in human U251 cells assessed as appearance of foamy cytoplasmic material at 6 to 10 uM measured after 48 hrs by transmission electron microscopy; assay type: functional, cell-based
U-251 [17] = assay: Induction of apoptosis in human U251 cells assessed as apoptotic cells at 8 uM measured after 48 hrs by annexin V/FITC-propidium iodide staining-based flow cytometric method relative to control; assay type: functional
U-251 [18] = assay: Cell cycle arrest in human U251 cells assessed as accumulation at G2/M phase at 10 uM measured after 48 hrs by propidium iodide staining based FACScan flow cytometry (reference value: 52.67 %); assay type: functional
U-251 [19] = assay: Induction of apoptosis in human U251 cells assessed as increase in apoptotic cells at 2 uM measured after 48 hrs by annexin V/FITC-propidium iodide staining-based flow cytometric method; assay type: functional, cell-based
U-251 [20] = assay: Antiproliferative activity against human U251 cells assessed as reduction in cAMP level at 4 to 10 uM measured after 48 hrs by radio-immunoassay; assay type: functional, cell-based
U-251 [21] = assay: Induction of morphological changes in human U251 cells assessed as inhibtion of cell surface extension at 6 to 10 uM measured after 48 hrs by scanning electron microscopy; assay type: functional, cell-based
U-251 [22] = assay: Induction of morphological changes in human U251 cells assessed as appearance of lipid droplets at 10 uM measured after 48 hrs by transmission electron microscopy; assay type: functional, cell-based
U-251 [23] = assay: Induction of morphological changes in human U251 cells assessed as appearance of autophagic vacuoles at 6 to 10 uM measured after 48 hrs by transmission electron microscopy; assay type: functional, cell-based
U-251 [24] = assay: Cell cycle arrest in human U251 cells assessed as accumulation at G2/M phase at 8 uM measured after 48 hrs by propidium iodide staining based FACScan flow cytometry (reference value: 52.67 %); assay type: functional
C6 [25] = assay: Antiproliferative activity against rat C6 cells assessed as cell proliferation at 4 uM measured after 48 hrs relative to control; assay type: functional; details: C6, 48 h, read-out: Activity
U-251 [26] = assay: Cell cycle arrest in human U251 cells assessed as accumulation at S phase at 10 uM measured after 48 hrs by propidium iodide staining based FACScan flow cytometry (reference value: 16.34 %); assay type: functional
C6 [27] = assay: Antiproliferative activity against rat C6 cells assessed as cell proliferation at 2 uM measured after 48 hrs relative to control; assay type: functional; details: C6, 48 h, read-out: Activity
U-251 [28] = assay: Cell cycle arrest in human U251 cells assessed as accumulation at G0/G1 phase at 10 uM measured after 48 hrs by propidium iodide staining based FACScan flow cytometry (reference value: 29.21 %); assay type: functional
U-251 [29] = assay: Induction of morphological changes in human U251 cells assessed as movement of chromatin granules towards periphery of nucleoplasm at 10 uM measured after 48 hrs by transmission electron microscopy; assay type: functional, cell-based
U-251 [30] = assay: Induction of morphological changes in human U251 cells assessed as chromatin condensation at 6 to 10 uM measured after 48 hrs by transmission electron microscopy; assay type: functional, cell-based
C6 [31] = assay: Antiproliferative activity against rat C6 cells assessed as cell proliferation at 6 uM measured after 48 hrs relative to control; assay type: functional; details: C6, 48 h, read-out: Activity
U-251 [32] = assay: Cell cycle arrest in human U251 cells assessed as accumulation at S phase at 6 uM measured after 48 hrs by propidium iodide staining based FACScan flow cytometry (reference value: 16.34 %); assay type: functional
U-251 [33] = assay: Cell cycle arrest in human U251 cells assessed as accumulation at S phase at 8 uM measured after 48 hrs by propidium iodide staining based FACScan flow cytometry (reference value: 16.34 %); assay type: functional
U-251 [34] = assay: Cell cycle arrest in human U251 cells assessed as accumulation at G0/G1 phase at 4 uM measured after 48 hrs by propidium iodide staining based FACScan flow cytometry (reference value: 29.21 %); assay type: functional
U-251 [35] = assay: Cell cycle arrest in human U251 cells assessed as accumulation at G0/G1 phase at 8 uM measured after 48 hrs by propidium iodide staining based FACScan flow cytometry (reference value: 29.21 %); assay type: functional
U-251 [36] = assay: Antiproliferative activity against human U251 cells measured after 48 hrs by MTT assay; assay type: functional, cell-based
U-251 [37] = assay: Antiproliferative activity against human U251 cells assessed as cell proliferation at 4 uM measured after 48 hrs relative to control; assay type: functional; details: U-251, 48 h, read-out: Activity
U-251 [38] = assay: Induction of morphological changes in human U251 cells assessed as inhibtion of microvilli at 6 to 10 uM measured after 48 hrs by scanning electron microscopy; assay type: functional, cell-based
U-251 [39] = assay: Antiproliferative activity against human U251 cells assessed as cell proliferation at 6 uM measured after 48 hrs relative to control; assay type: functional; details: U-251, 48 h, read-out: Activity
U-251 [40] = assay: Antiproliferative activity against human U251 cells assessed as reduction in cAMP level at 2 uM measured after 48 hrs by radio-immunoassay; assay type: functional, cell-based

## C[C@H]1[C@H](C)CC[C@]2(C(=O)O)CC[C@]3(C)C(=CC[C@@H]4[C@@]5(C)C/C(=C(\c6ccc(O)cc6O)C(c6ccccc6O)c6c[nH]c7ccccc67)C(=O)C(C)(C)[C@@H]5CC[C@]43C)[C@H]12 (stereo not given in full)
U-251 [1]
  Activity: 69.32%
U-251 [2]
  Activity: 36.16%
U-251 [3]
  growth at 8 µM: 39%
U-251 [4]
  Activity: 50%
U-251 [5]
  Activity: Active
U-251 [6]
  Activity: Active
U-251 [7]
  Activity: 21.65%
U-251 [8]
  growth at 2 µM: 99%
C6 [9]
  growth at 8 µM: 43%
C6 [10]
  growth at 10 µM: 21%
U-251 [11]
  Activity: 49.26%
U-251 [12]
  growth at 10 µM: 17%
U-251 [13]
  Activity: Active
U-251 [14]
  Activity: 8.56%
C6 [15]
  Activity: Dose-dependent effect
U-251 [16]
  Activity: Active
U-251 [17]
  Activity: 39.78%
U-251 [18]
  Activity: 35.23%
U-251 [19]
  Activity: inactive
U-251 [20]
  Activity: Active
U-251 [21]
  Activity: Active
U-251 [22]
  Activity: Active
U-251 [23]
  Activity: Active
U-251 [24]
  Activity: 42.45%
C6 [25]
  growth at 4 µM: 86%
U-251 [26]
  Activity: 9.65%
C6 [27]
  growth at 2 µM: 99%
U-251 [28]
  Activity: 53.76%
U-251 [29]
  Activity: Active
U-251 [30]
  Activity: Active
C6 [31]
  growth at 6 µM: 68%
U-251 [32]
  Activity: 12.51%
U-251 [33]
  Activity: 11.78%
U-251 [34]
  Activity: 32.44%
U-251 [35]
  Activity: 41.78%
U-251 [36]
  Activity: Dose-dependent effect
U-251 [37]
  growth at 4 µM: 83%
U-251 [38]
  Activity: Active
U-251 [39]
  growth at 6 µM: 61%
U-251 [40]
  Activity: inactive
